Patent US10035797B2, “Fused amino pyridine as HSP90 inhibitors” (Curis, Inc., priority 2007, dated 2018)

Target: HSP90 (Homo sapiens (Human), UniProt P07900)
Assay: HSP90 competition binding (fluorescence polarization) assay
Settings: FITC labeled GM, 24 hours at 4° C.
Description: (b) HSP90 Competition Binding (Fluorescence Polarization) Assay.
A fluorescein isothiocyanate (FITC) labeled GM was purchase from InvivoGen (ant-fgl-1). The interaction between HSP90 and labeled GM forms the basis for the fluorescence polarization assay. A free and fast-tumbling FITC labeled GM emits random light with respect to the plane of polarization plane of excited light, resulting in a lower polarization degree (mP) value. When GM is bound to HSP90, the complex tumble slower and the emitted light is polarized, resulting in a higher mP value. […] The assay buffer contained 20 mM HEPES (pH 7.3), 50 mM KCl, 1 mM DTT, 50 mM MgCl2, 20 mM Na2MoO4, 0.01% NP40 with 0.1 mg/ml bovine gamma-globulin.

Compound CC(C)(C)CNCCCn1c(Sc2cc3c(cc2I)OCO3)nc2c(N)nccc21 [Compound 56, 2-(6-iodobenzo[d][1,3]dioxol-5-ylthio)-1-(3-(neopentylamino)propyl)-1H-imidazo[4,5-c]pyridin-4-amine] has an IC50 of 100 to 1000 nM.
